Calls of active or inactive are those of the source. No cut-off for these calls is given here.
Key:
[1] = Antioxidant activity assessed as DPPH radical scavenging activity measured for 30 mins by spectrophotometric analysis; format: functional
[2] = Antioxidant activity assessed as ABTS radical scavenging activity after 20 mins; format: functional
[3] = Antioxidant activity assessed as FRAP radical scavenging activity by measuring reduction of Fe3+ complex to Fe2+ analogue incubated for 30 mins by FRAP assay; format: functional
RAW264.7 [4] = assay: Cytotoxicity against mouse RAW264.7 cells at 10 uM measured after 24 hrs by MTT assay relative to control; format: functional
RAW264.7 [5] = assay: Inhibition of H2O2 induced ROS production in mouse RAW264.7 cells assessed as decrease in ROS level at 10 uM preincubated for 3 hrs followed by H2O2 addition and measured after 3 hrs DCFH-DA staining based flow cytometry analysis; format: functional, cell-based; settings: time 6.0 hrs
RAW264.7 [6] = assay: Inhibition of H2O2 induced ROS production in mouse RAW264.7 cells assessed as decrease in ROS level preincubated for 3 hrs followed by H2O2 addition and measured after 3 hrs DCFH-DA staining based flow cytometry analysis; format: functional, cell-based; settings: dose 2.5-10 µM, time 6.0 hrs
RAW264.7 [7] = assay: Antiinflammatory activity against mouse RAW264.7 cells assessed as inhibition of LPS-induced NO production at 10 uM preincubated for 4 hrs with compound followed by LPS stimulation and measured after 12 hrs; format: functional, cell-based; settings: time 16.0 hrs
RAW264.7 [8] = assay: Upregulation of Nrf2 expression in H2O2 induced mouse RAW264.7 cells by Western blot analysis; format: functional, cell-based; settings: dose 2.5-10 µM
RAW264.7 [9] = assay: Effect on KEAP1 level in H2O2 induced mouse RAW264.7 cells at 2.5 to 10 uM by Western blot analysis; format: functional, cell-based; settings: dose 2.5-10 µM
RAW264.7 [10] = assay: Upregulation of SOD mRNA expression in H2O2 induced mouse RAW264.7 cells at 2.5 to 10 uM by RT-qPCR analysis; format: functional, cell-based; settings: dose 2.5-10 µM
RAW264.7 [11] = assay: Upregulation of CAT mRNA expression in H2O2 induced mouse RAW264.7 cells at 2.5 to 10 uM by RT-qPCR analysis; format: functional, cell-based; settings: dose 2.5-10 µM
RAW264.7 [12] = assay: Upregulation of GPx mRNA expression in H2O2 induced mouse RAW264.7 cells at 2.5 to 10 uM by RT-qPCR analysis; format: functional, cell-based; settings: dose 2.5-10 µM
RAW264.7 [13] = assay: Upregulation of HO-1 protein level in H2O2 induced mouse RAW264.7 cells at 2.5 to 10 uM by Western blot analysis; format: functional, cell-based; settings: dose 2.5-10 µM
RAW264.7 [14] = assay: Upregulation of HO-1 mRNA expression in H2O2 induced mouse RAW264.7 cells at 2.5 to 10 uM by RT-qPCR analysis; format: functional, cell-based; settings: dose 2.5-10 µM
RAW264.7 [15] = assay: Protection against H2O2 induced apoptosis in mouse RAW264.7 cells assessed as cell apoptosis rate at 10 uM preincubated for 3 hrs with compound followed by H2O2 stimulation and measured after 3 hrs by annexin V-FITC and PI staining based flow cytometry analysis (reference value: 15.63%); format: functional; settings: time 6 hrs
RAW264.7 [16] = assay: Protection against H2O2 induced apoptosis in mouse RAW264.7 cells assessed as decrease in cleaved caspase-3 expression at 10 uM by Western blot analysis; format: functional, cell-based
RAW264.7 [17] = assay: Protection against H2O2 induced apoptosis in mouse RAW264.7 cells assessed as decrease in cleaved PARP expression at 10 uM by Western blot analysis; format: functional, cell-based
RAW264.7 [18] = assay: Antiinflammatory activity in LPS-stimulated mouse RAW264.7 cells assessed as reduction in iNOS level preincubated for 4 hrs followed by LPS stimulation for 12 hrs by Western blot analysis; format: functional, cell-based; settings: dose 2.5-10 µM, time 16.0 hrs
RAW264.7 [19] = assay: Antiinflammatory activity in LPS-stimulated mouse RAW264.7 cells assessed as reduction in iNOS mRNA expression preincubated for 4 hrs followed by LPS stimulation for 12 hrs by RT-qPCR analysis; format: functional, cell-based; settings: dose 2.5-10 µM, time 16.0 hrs
RAW264.7 [20] = assay: Antiinflammatory activity in LPS-stimulated mouse RAW264.7 cells assessed as reduction in NF-kappaB p65 phosphorylation level at 10 uM preincubated for 4 hrs followed by LPS stimulation for 12 hrs by Western blot analysis; format: functional, cell-based; settings: time 16.0 hrs
RAW264.7 [21] = assay: Antiinflammatory activity in LPS-stimulated mouse RAW264.7 cells assessed as inhibition of p38 phosphorylation level preincubated for 4 hrs followed by LPS stimulation for 12 hrs by Western blot analysis; format: functional, cell-based; settings: dose 2.5-10 µM, time 16.0 hrs
RAW264.7 [22] = assay: Antiinflammatory activity in LPS-stimulated mouse RAW264.7 cells assessed as inhibition of JNK phosphorylation level preincubated for 4 hrs followed by LPS stimulation for 12 hrs by Western blot analysis; format: functional, cell-based; settings: dose 2.5-10 µM, time 16.0 hrs
RAW264.7 [23] = assay: Antiinflammatory activity in LPS-stimulated mouse RAW264.7 cells assessed as effect on ERK phosphorylation level preincubated for 4 hrs followed by LPS stimulation for 12 hrs by Western blot analysis; format: functional, cell-based; settings: time 16.0 hrs
RAW264.7 [24] = assay: Upregulation of Nrf2 expression in H2O2 induced mouse RAW264.7 cells at 10 uM by Western blot analysis; format: functional, cell-based
RAW264.7 [25] = assay: Protection against H2O2 induced apoptosis in mouse RAW264.7 cells assessed as cell apoptosis rate at 10 uM preincubated for 3 hrs with compound followed by H2O2 stimulation and measured after 3 hrs by annexin V-FITC and PI staining based flow cytometry analysis; format: functional; settings: time 6.0 hrs

## O=C(N/N=C\c1c(O)cc(O)cc1/C=C/c1ccc(O)cc1)c1ccc(Br)cc1
[1]
  IC50: 84 µM
[2]
  IC50: 13 µM
[3]
  Activity: 0.5 µM

## Nc1ccccc1C(=O)N/N=C\c1c(O)cc(O)cc1/C=C/c1ccc(O)cc1
[1]
  IC50: 39.8 µM
[2]
  IC50: 8.5 µM
[3]
  Activity: 1.5 µM

## Cc1c(C)c2c(c(C)c1O)CCC(C)(C(=O)O)O2 (stereo not given) [TROLOX]
[1]
  IC50: 32.7 µM
[2]
  IC50: 14.7 µM
[3]
  Activity: 2.5 µM

## Nc1ccc(C(=O)N/N=C\c2c(O)cc(O)cc2/C=C/c2ccc(O)cc2)cc1
RAW264.7 [4]
  Activity: >80%
[1]
  IC50: 46.2 µM
[2]
  IC50: 9.7 µM
[3]
  Activity: 2.2 µM

## O=C(N/N=C\c1c(O)cc(O)cc1/C=C/c1ccc(O)cc1)c1ccc(O)cc1
RAW264.7 [4]
  Activity: >80%
RAW264.7 [5]
  inhibition: Active
RAW264.7 [6]
  inhibition: Dose-Dependent Effect
RAW264.7 [7]
  Activity: Active
RAW264.7 [8]
  Activity: Dose-Dependent Effect
RAW264.7 [9]
  Activity: inactive
RAW264.7 [10]
  Activity: inactive
RAW264.7 [11]
  Activity: inactive
RAW264.7 [12]
  Activity: inactive
RAW264.7 [13]
  Activity: Active
RAW264.7 [14]
  Activity: Active
RAW264.7 [15]
  Activity: 26.58%
RAW264.7 [16]
  Activity: Active
RAW264.7 [17]
  Activity: Active
RAW264.7 [18]
  Activity: Dose-Dependent Effect
RAW264.7 [19]
  Activity: Dose-Dependent Effect
RAW264.7 [20]
  Activity: Active
RAW264.7 [21]
  Activity: Dose-Dependent Effect
RAW264.7 [22]
  Activity: Dose-Dependent Effect
RAW264.7 [23]
  Activity: inactive
[1]
  IC50: 69.9 µM
[2]
  IC50: 13 µM
[3]
  Activity: 1.1 µM

## O=C(N/N=C\c1c(O)cc(O)cc1/C=C/c1ccc(O)cc1)c1ccc(F)cc1
[1]
  IC50: 86.3 µM
[2]
  IC50: 15.7 µM
[3]
  Activity: 0.8 µM

## O=C(N/N=C\c1c(O)cc(O)cc1/C=C/c1ccc(O)cc1)c1cccc(O)c1
RAW264.7 [4]
  Activity: >80%
RAW264.7 [7]
  Activity: Active
[1]
  IC50: 76.6 µM
[2]
  IC50: 11.7 µM
[3]
  Activity: 1.3 µM

## O=C(N/N=C\c1c(O)cc(O)cc1/C=C/c1ccc(O)cc1)c1ccccc1F
[1]
  IC50: 97.8 µM
[2]
  IC50: 17.3 µM
[3]
  Activity: 1 µM

## O=C(N/N=C\c1c(O)cc(O)cc1/C=C/c1ccc(O)cc1)c1ccncc1
RAW264.7 [4]
  Activity: >80%
[1]
  IC50: 104 µM
[2]
  IC50: 13.5 µM
[3]
  Activity: 1.1 µM

## O=C(N/N=C\c1c(O)cc(O)cc1/C=C/c1ccc(O)cc1)c1ccccc1
[1]
  IC50: 84.4 µM
[2]
  IC50: 13.4 µM
[3]
  Activity: 0.7 µM

## O=C(N/N=C\c1c(O)cc(O)cc1/C=C/c1ccc(O)cc1)c1ccccc1O
[1]
  IC50: 37.8 µM
[2]
  IC50: 12.8 µM
[3]
  Activity: 0.9 µM

## Cc1ccccc1C(=O)N/N=C\c1c(O)cc(O)cc1/C=C/c1ccc(O)cc1
[1]
  IC50: 97.3 µM
[2]
  IC50: 17.2 µM
[3]
  Activity: 0.4 µM

## Cc1cccc(C(=O)N/N=C\c2c(O)cc(O)cc2/C=C/c2ccc(O)cc2)c1
[1]
  IC50: 80.8 µM
[2]
  IC50: 18 µM
[3]
  Activity: 0.9 µM

## O=C(N/N=C\c1c(O)cc(O)cc1/C=C/c1ccc(O)cc1)c1cccc(Cl)c1
[1]
  IC50: 81.9 µM
[2]
  IC50: 15.2 µM
[3]
  Activity: 0.9 µM

## N#Cc1ccc(C(=O)N/N=C\c2c(O)cc(O)cc2/C=C/c2ccc(O)cc2)cc1
[1]
  IC50: 84 µM
[2]
  IC50: 18.2 µM
[3]
  Activity: 0.6 µM

## Oc1ccc(/C=C/c2cc(O)cc(O)c2)cc1 [RESVERATROL]
RAW264.7 [24]
  Activity: inactive
RAW264.7 [9]
  Activity: inactive
RAW264.7 [25]
  Activity: inactive
RAW264.7 [16]
  Activity: inactive
RAW264.7 [17]
  Activity: inactive
RAW264.7 [23]
  Activity: inactive
[1]
  IC50: 86.6 µM
[2]
  IC50: 18.4 µM
[3]
  Activity: 0.9 µM

## Cc1ccc(C(=O)N/N=C\c2c(O)cc(O)cc2/C=C/c2ccc(O)cc2)cc1
[1]
  IC50: 87 µM
[2]
  IC50: 15.7 µM
[3]
  Activity: 0.5 µM

## O=C(N/N=C\c1c(O)cc(O)cc1/C=C/c1ccc(O)cc1)c1ccc(Cl)cc1
[1]
  IC50: 89.5 µM
[2]
  IC50: 17.9 µM
[3]
  Activity: 0.7 µM

## O=C(N/N=C\c1c(O)cc(O)cc1/C=C/c1ccc(O)cc1)c1cccnc1
RAW264.7 [4]
  Activity: >80%
[1]
  IC50: 89.5 µM
[2]
  IC50: 12.7 µM
[3]
  Activity: 1.2 µM

## O=C(N/N=C\c1c(O)cc(O)cc1/C=C/c1ccc(O)cc1)c1ccccn1
RAW264.7 [4]
  Activity: >80%
RAW264.7 [5]
  inhibition: Active
RAW264.7 [7]
  Activity: Active
[1]
  IC50: 98.3 µM
[2]
  IC50: 17.1 µM
[3]
  Activity: 0.9 µM

## O=C(N/N=C\c1c(O)cc(O)cc1/C=C/c1ccc(O)cc1)c1cccc([N+](=O)[O-])c1
[1]
  IC50: 79.9 µM
[2]
  IC50: 11.6 µM
[3]
  Activity: 0.4 µM

## O=C(N/N=C\c1c(O)cc(O)cc1/C=C/c1ccc(O)cc1)c1cccc(F)c1
[1]
  IC50: 82.6 µM
[2]
  IC50: 12.5 µM
[3]
  Activity: 0.8 µM
